Where two headings read alike, the source gives them in different places. A value given as a limit tells only on which side of the number the result lay.

Series [1] relates to P-gp. In words: In-vivo P-gp pharmacokinetic study with digoxin. On the set-up: species or system SD rats. As to conditions: for Cl / Cmax / AUC(0-inf) / AUC(0-t) / half-life: SD rats, plasma; for Cmax / AUC(0-inf) / AUC(0-t) / half-life: rat, po; for Cmax: 0.5 mg/kg. The procedure: Effect of single dose garcinol on the P-gp was evaluated in-vivo, 18 rats were divided into three groups (Group I- Group III). Group I (Control group): rats were administered intragastrically with a single dose of vehicle (0.5% CMC-Na), and after 2 h of vehicle administration, digoxin (0.5 mg/kg) was given to the rats by intragastric administration. Group II: Rats received a single dose of garcinol (25 mg/kg) and digoxin (0.5 mg/kg) after 2 h. Group III: Verapamil (potent P-gp inhibitor) was administered to these rats followed by the administration of digoxin (results not shown). 0.2 mL of blood was collected at 0, 0.25, 0.5, 1, 2, 4, 6, 8, 24, and 48 h, plasma was separated immediately by centrifuging blood samples at 5000 rpm for 5 min and stored at −80 °C until analysis.
50 µL of plasma samples was crashed with ice-cold ACN containing internal standard (75 ng/mL) and vortexed gently and centrifuged at 10,000 rpm for 5 min. Supernatant was collected and submitted for LC-MS/MS analysis. LC-MS analysis was performed on LC-QTOF/MS (Agilent, 6540) and chromatographic separation was achieved on Waters X-Bridge C18 column (3.5 µm, 50 mm × 1.76 mm I.D) at 30 °C. Digoxin was analysed by a mobile phase consisting of solvent A (0.1% Formic acid in water) and solvent B (100% ACN) flow at a rate of 0.4 mL/min with a gradient program of 5 min. The program consisted of initial10 %B from 0.01 to 3.00 min, followed by 90% B from 3.01 to 4.00 min and again to 10% B from 4.01 to 5.00 min. [M+H]+ ions were identified and quantified for Digoxin and IS as 781.4369 and 515.2442, respectively. Optimized MS operating parameters were as follows: drying gas 10 L/min, gas temperature 325 °C, nebulizer at 40 psig, fragmentor voltage of 140 V and skimmer at 65 V.

For series [2], the system named is CYP2B6. In words: In-vivo CYP inhibition study, pharmacokinetics of probe bupropion and hydroxy bupropion. As to conditions: plasma.
Series [3] deals with CYP2C19. In words: CYP2C19 inhibition, probe substrate cocktail in rat liver microsomes (S-mephenytoin 4-hydroxylation). The note with it: pH 7.4, probe S-mephenytoin (4-hydroxylation), rat liver microsomes 0.5 mg/mL, garcinol 0.11-30 µM. Format: in vitro ADME. The procedure:
(§1) Tacrine was used as CYP1A2 probe substrate instead of Phenacetin to avoid the possible interactions of Phenacetin with CYP2E1 probe substrate Chlorzoxazone. […] The above incubation mixture was pre-incubated for 5 min at 37 °C and the reaction was started by adding NADPH and terminated by the addition of 200 µL of ice-cold acetonitrile containing internal standard (IS). Then the mixture was vortex mixed and centrifuged at 4000 rpm for 10 min at 4 °C and supernatant was separated and analysed using LC-MS/MS.
(§2) IC50 values were determined by comparing each CYP isozyme activity in the presence of different concentrations of inhibitor (Garcinol) with the control incubations containing no inhibitor (Negative control). […]
(§3) The entire procedure is same as mentioned in section 2.3 except for various concentrations of the formulations
(§4) and extracts (0.41-100 µg/mL) and garcinol (0.11-30 µM) were used in the study.
In general terms: Liver microsomes are a subcellular fraction often used to study metabolism.

The test system of series [4] is CYP3A4. Put plainly: CYP3A4 inhibition, probe substrate cocktail in rat liver microsomes (midazolam 1-hydroxylation). Format: in vitro ADME. The note with it: pH 7.4, probe midazolam (1-hydroxylation), rat liver microsomes 0.5 mg/mL, garcinol 0.11-30 µM. Here is the method: as §1, §2, §3, §4
The target of series [5] is T1, CYP1A2 (Rattus norvegicus, UniProt P04799).
T1 sequence (P04799 1-513): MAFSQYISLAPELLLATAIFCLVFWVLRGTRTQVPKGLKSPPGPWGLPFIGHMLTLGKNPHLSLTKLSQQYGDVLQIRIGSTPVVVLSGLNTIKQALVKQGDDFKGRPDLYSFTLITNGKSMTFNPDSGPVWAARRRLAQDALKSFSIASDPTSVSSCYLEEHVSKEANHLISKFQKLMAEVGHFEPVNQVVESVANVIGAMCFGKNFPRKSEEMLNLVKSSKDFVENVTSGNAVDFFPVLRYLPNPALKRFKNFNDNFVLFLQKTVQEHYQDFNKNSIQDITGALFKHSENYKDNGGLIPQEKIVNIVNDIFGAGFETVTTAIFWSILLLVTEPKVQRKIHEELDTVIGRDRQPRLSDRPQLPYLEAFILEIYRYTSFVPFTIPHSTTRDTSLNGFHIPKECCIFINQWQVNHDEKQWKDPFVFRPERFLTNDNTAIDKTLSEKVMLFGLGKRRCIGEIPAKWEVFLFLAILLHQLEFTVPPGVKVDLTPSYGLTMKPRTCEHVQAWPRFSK
Put plainly: CYP1A2 inhibition, probe substrate cocktail in rat liver microsomes (tacrine 1-hydroxylation). Here is the method:
as §1, §2, §3, §4

The test system of series [6] is CYP2D6. Put plainly: CYP2D6 inhibition, probe substrate cocktail in rat liver microsomes (dextromethorphan O-demethylation). Format: in vitro ADME. As to conditions: pH 7.4, probe dextromethorphan (O-demethylation), rat liver microsomes 0.5 mg/mL, garcinol 0.11-30 µM. The procedure:
as §1, §2, §3, §4

The subject of series [7] is CYP2C8. In words: CYP2C8 inhibition, probe substrate cocktail in rat liver microsomes (paclitaxel 6α-hydroxylation). Format: in vitro ADME. The note with it: for Inhibition of CYP2C8 (in words): rat liver microsomes, garcinol up to 30 µM. The procedure:
as §1, §2, §3, §4

Series [8] concerns the target CYP2E1 (Rattus norvegicus, UniProt P05182). In words: CYP2E1 inhibition, probe substrate cocktail in rat liver microsomes (chlorzoxazone 6-hydroxylation). The procedure: as §1, §2, §3, §4
For series [9], the system named is CYP2B6. In words: CYP2B6 inhibition, probe substrate cocktail in rat liver microsomes (bupropion hydroxylation). The note with it: pH 7.4, probe bupropion (hydroxylation). Format: in vitro ADME. Here is the method: as §1, §2, §3, §4
For series [10], the system named is CYP2C9. In words: CYP2C9 inhibition, probe substrate cocktail in rat liver microsomes (diclofenac 4-hydroxylation). Format: in vitro ADME. As to conditions: pH 7.4, probe diclofenac (4-hydroxylation), rat liver microsomes 0.5 mg/mL, garcinol 0.11-30 µM. Here is the method:
as §1, §2, §3, §4

The test system of series [11] is CYP isoforms. In words: Time-dependent inhibition, IC50 shift assay in rat liver microsomes. Format: in vitro ADME. As to conditions: 30 min pre-incubation with and without NADPH, all tested CYP isoforms. Here is the method:
Garcinol was pre-incubated with rat liver microsomes to determine the time-dependent inhibition potential of garcinol on various CYP isoforms individually. After 30 min of incubation with and without NADPH separately, metabolites of each CYP probe substrates were quantified using LC-MS/MS. IC50 values with and without NADPH pre-incubation were calculated using graph-pad prism and change in IC50 fold was calculated to evaluate the potential of garcinol to inhibit the CYP enzymes irreversibly. If the curve shifts to lower IC50 value after the pre- incubation in presence of NADPH, it is said to be a time-dependent inhibition. Concentrations of the test compound and other procedure were same as reversible inhibition study mentioned under Section 2.3.

Series [12] relates to P-gp. In words: Western blotting of P-gp expression in rat brain and intestine. Format: in vivo, rats. The note with it: garcinol 25 mg/kg intragastric once a day for 10 days, normalized to β-actin, p < 0.05. The procedure:
For Western blot analysis, twelve rats were divided into two groups. […] On the 10th day, all the rats were sacrificed under CO2 euthanasia. Brain and intestine were isolated immediately and stored at −80 °C until use. 10 mg of intestinal and brain samples were lysed using ice-cold radio immunoprecipitation assay lysis buffer containing 0.02 mM phenylmethane sulfonyl fluoride for 30 min and ultrasonicated for 60 s at 20-s intervals in an ice bath. These samples were transferred to centrifugation tubes and centrifuged for 10 min at 8000 g by maintaining temperature at 4 °C. Supernatants were estimated for protein concentration using BCA protein assay kit by following the manufacturer’s instructions. Protein denaturation was performed by reconstituting the supernatant in lammelle buffer and boiled for 5 mins at 97 °C. The denatured samples were later separated on 10% SDS-polyacrylamide gel electrophoresis and then transferred onto a nitrocellulose membrane. The membrane was then blocked with 3% bovine serum albumin in Tris-buffered saline-Tween 20 (TBS-T) for 1 hr at 37 °C. These immunoblots were probed with primary monoclonal antibody P-gp (1:1000) or β-actin (1:1000) overnight at 4 °C. […] The band intensity of P-gp protein was normalized to that of β-actin detected using Azure biosystems.

Series [13] deals with CYP3A4. Put plainly: in vivo. The note with it: Sprague-Dawley, rat, plasma, po, 10 mg/kg.
In series [14] the test system is CYP3A4. As to conditions: rats, midazolam 10 mg/kg in probe mixture on day 8, with garcinol 25 mg/kg oral for 7 days, plasma; second block of Table 3.
Where [15] appears, read: digoxin 0.5 mg/kg 2 h after single dose garcinol 25 mg/kg (group DGX + Garcinol).
Where [16] appears, read: Sprague-Dawley, digoxin 0.5 mg/kg intragastric 2 h after vehicle (group DGX).
Where [17] appears, read: rats, bupropion 10 mg/kg in probe mixture on day 8, with garcinol 25 mg/kg oral for 7 days.
The mark [18] stands for this setting: Sprague-Dawley, rat, po, 10 mg/kg.

CYP2E1, sequence (P05182 whole entry): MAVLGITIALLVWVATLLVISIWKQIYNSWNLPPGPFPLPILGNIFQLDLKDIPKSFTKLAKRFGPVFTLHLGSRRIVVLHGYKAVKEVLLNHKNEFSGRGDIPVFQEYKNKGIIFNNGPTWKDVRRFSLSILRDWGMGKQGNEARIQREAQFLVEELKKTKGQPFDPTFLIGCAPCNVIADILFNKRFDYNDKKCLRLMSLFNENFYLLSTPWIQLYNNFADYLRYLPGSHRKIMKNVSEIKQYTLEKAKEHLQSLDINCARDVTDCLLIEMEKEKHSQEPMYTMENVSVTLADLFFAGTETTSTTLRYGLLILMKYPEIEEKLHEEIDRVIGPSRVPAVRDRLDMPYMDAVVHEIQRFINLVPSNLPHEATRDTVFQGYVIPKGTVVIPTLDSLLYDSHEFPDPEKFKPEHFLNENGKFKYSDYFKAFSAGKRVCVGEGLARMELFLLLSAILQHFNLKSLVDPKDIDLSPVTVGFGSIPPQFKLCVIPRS

Consider `C[C@H]1O[C@@H](O[C@H]2[C@@H](O)C[C@H](O[C@H]3[C@@H](O)C[C@H](O[C@H]4CC[C@@]5(C)[C@H](CC[C@@H]6[C@@H]5C[C@@H](O)[C@]5(C)[C@@H](C7=CC(=O)OC7)CC[C@]65O)C4)O[C@@H]3C)O[C@@H]2C)C[C@H](O)[C@@H]1O` [DGX, digoxin], for which, in series [1] (setting [15]), the Cl came out at 24.5793 ± 1.422 mL/min/kg; the AUC(0-inf) – broadly, the area under the concentration-time curve extrapolated to infinity – came out at 172 ± 12.6 ng·h/mL; the area under the curve AUC(0-t) (commonly exposure summed from dosing to a finite time, without extrapolation to infinity) is 151.4 ± 0.58 ng·h/mL; the half-life (usually the time needed for the level to fall by half in the phase considered) was 7.32 ± 1.75 h. The compound also had a Cl in [1] (digoxin 0.5 mg/kg intragastric 2 h after vehicle (group DGX)) of 16.401 ± 0.9478 mL/min/kg. Further, the Cmax (commonly the peak of the concentration-time curve) in series [1] (Sprague-Dawley, digoxin 0.5 mg/kg 2 h after single dose garcinol 25 mg/kg (group DGX + Garcinol)) worked out at 16.8 ± 4.22 ng/mL. In addition, in series [1] (setting [16]), the highest concentration (Cmax) stood at 26.1 ± 5.23 ng/mL, the AUC(0-inf) is 254 ± 19.2 ng·h/mL, the AUC(0-t) was determined as 172 ± 12.3 ng·h/mL and the half-life is 15.1 ± 0.35 h.
For `C[C@H]1NC(C)(C)CO[C@]1(O)c1cccc(Cl)c1` [Hydroxy Bupropion, hydroxybupropion], in [2] (setting [17]), the “AUC0-∞” value was 6200.97 ± 106.97 ng·h/mL; the AUClast is 6057.86 ± 101.41 ng·h/mL; the highest concentration (Cmax) turned out to be 632.02 ± 30.55 ng/mL; the Tmax (in general, the time from dosing to the highest level) was 1 ± 1.93 h. In addition, the t1/2 in series [2] (setting [17]) is on record as 10.23 ± 0.04 h.
Turning to `C=C(C)[C@@H](CC=C(C)C)C[C@@]12C[C@@H](CC=C(C)C)C(C)(C)[C@@](CC=C(C)C)(C(=O)C(C(=O)c3ccc(O)c(O)c3)=C1O)C2=O` [Garcinol], the IC50 (commonly the point on the concentration scale where inhibition reaches its midpoint) in series [3] is 16.4 µM; in series [4], 5.1 µM; in series [5], 7.6 µM; in series [6], 9.5 µM; in series [7] (pH 7.4, probe paclitaxel (6α-hydroxylation), rat liver microsomes 0.5 mg/mL, substrate paclitaxel, garcinol 0.11-30 µM) it was more than 30 µM; in series [8], 19 µM. In addition, the IC50 in series [9] stood at 2.1 µM; in series [10], 8 µM. Besides, the “Inhibition of CYP2C8 (in words)” value in series [7] is reported as “no apparent inhibition”; in series [7] (listed as garcinol) it was “negligibly inhibited”. Further, the “Shift in IC50 (time dependent inhibition)” value is “no significant shift” in [11] and “did not show shift” in [11] (listed as garcinol). Also, the “P-gp expression increase vs control group” value in series [12] (rat brain tissue) was found to be 1.62 fold; in series [12] (rat intestinal tissue) it was 1.07 fold. Also, the “Effect on P-gp function in vivo (in words)” value in series [1] (rats, single dose garcinol 25 mg/kg, digoxin as P-gp substrate) is “not an inhibitor of P-gp”.
For `CC(NC(C)(C)C)C(=O)c1cccc(Cl)c1` (stereo not shown) [Bupropion, bupropion], in series [2] (setting [18]), the AUC(0-inf) was determined as 48800 ng·h/mL, the area under the curve AUC(0-t) was 48200 ng·h/mL, the highest level (Cmax) was 8100 ± 121 ng/mL and the Tmax worked out at 2.5 ± 3.52 h.
Regarding `Cc1ncc2n1-c1ccc(Cl)cc1C(c1ccccc1F)=NC2` [midazolam], in series [13], the total exposure AUC(0-inf) is 1140 ± 77.4 ng·h/mL, the exposure AUC(0-t) is 1240 ± 18.6 ng·h/mL, the concentration peaked (Cmax) at 829 ± 15.7 ng/mL and the Tmax was 0.5 ± 1.23 h. For the same compound, the half-life in [13] was 3.12 ± 0.88 h.
Regarding `OCc1ncc2n1-c1ccc(Cl)cc1C(c1ccccc1F)=NC2` [hydroxy midazolam, 1-hydroxy midazolam], in series [14], the AUClast is 737.45 ± 66.95 ng·h/mL, the Cmax is 482.85 ± 14.34 ng/mL, the time to peak (Tmax) is listed as 0.25 ± 1.92 h and the t1/2 worked out at 2.15 ± 0.36 h.

Source of the values: publication PMC8705362, “Cytochrome P450 and P-gp Mediated Herb-Drug Interactions and Molecular Docking Studies of Garcinol” (Membranes, 2021).
